According to patent US10143746B2, “Immunomodulators” (BRISTOL-MYERS SQUIBB COMPANY, priority 2016, dated 2018):
Where a SMILES comes first, the peptide text is derived from it. Bridges are numbered along the chain shown (N, C = ends). [ ]: non-standard residue; d: D form. Bta = N[C@@H](Cc1csc2ccccc12)C(=O)O; Hyp = O=C(O)[C@@H]1C[C@@H](O)CN1; NMeNle = CCCC[C@H](NC)C(=O)O; NMeA = CN[C@@H](C)C(=O)O; Orn = NCCC[C@H](N)C(=O)O; Sar = CNCC(=O)O

These compounds were tested against PD-1-Ig binding to PD-L1-TVMV-His (PD-L1-His) (Homo sapiens (Human), UniProt Q9NZQ7) (assay: PD-1/PD-L1 Homogenous Time-Resolved Fluorescence (HTRF) binding assay (PD-1-Ig/PD-L1-His)). Settings: PD-1-Ig (20 nM)/PD-L1-His (10 nM); numeric values.
PD-1-Ig binding to PD-L1-TVMV-His (PD-L1-His), sequence (Q9NZQ7 other isoform, or with tags, fused parts or gaps): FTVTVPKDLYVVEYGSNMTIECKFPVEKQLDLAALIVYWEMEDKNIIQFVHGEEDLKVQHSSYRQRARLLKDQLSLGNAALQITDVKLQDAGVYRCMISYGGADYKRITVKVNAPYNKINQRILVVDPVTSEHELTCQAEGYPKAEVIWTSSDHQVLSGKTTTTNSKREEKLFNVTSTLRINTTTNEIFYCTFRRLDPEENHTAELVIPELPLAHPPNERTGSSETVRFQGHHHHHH
From the text: Methods for Testing the Ability of Macrocyclic Compounds to Compete for the Binding of PD-1 to PD-L1 Using Homogenous Time-Resolved Fluorescence (HTRF) Binding Assays
The ability of the macrocyclic compounds of the present disclosure to bind to PD-L1 was investigated using a PD-1/PD-L1 Homogenous Time-Resolved Fluorescence (HTRF) binding assay.
Homogenous Time-Resolved Fluorescence (HTRF) Assays of Binding of Soluble PD-1 to Soluble PD-L1. Soluble PD-1 and soluble PD-L1 refers to proteins with carboxyl-end truncations that remove the transmembrane-spanning regions and are fused to heterologous sequences, specifically the Fc portion of the human immunoglobulin G sequence (Ig) or the hexahistidine epitope tag (His). All binding studies were performed in an HTRF assay buffer consisting of dPBS supplemented with 0.1% (w/v) bovine serum albumin and 0.05% (v/v) Tween-20. For the PD-1-Ig/PD-L1-His binding assay, inhibitors were pre-incubated with PD-L1-His (10 nM final) for 15 m in 4 μl of assay buffer, followed by addition of PD-1-Ig (20 nM final) in 1 μl of assay buffer and further incubation for 15 m. PD-L1 fusion proteins from either human, cynomologous macaques, mouse, or other species were used. HTRF detection was achieved using europium crypate-labeled anti-Ig monoclonal antibody (1 nM final) and allophycocyanin (APC) labeled anti-His monoclonal antibody (20 nM final). Antibodies were diluted in HTRF detection buffer and 5 μl was dispensed on top of binding reaction. […] Additional binding assays were established between PD-1-Ig/PD-L2-His (20 and 5 nM, respectively), CD80-His/PD-L1-Ig (100 and 10 nM, respectively) and CD80-His/CTLA4-Ig (10 and 5 nM, respectively).
Recombinant Proteins. […] Human PD-L2-His (Sino Biologicals), CD80-His (Sino Biologicals), CTLA4-Ig (RnD Systems) were all obtained through commercial sources.
With `CCCC[C@H]1C(=O)N(C)[C@@H](CCCC)C(=O)N[C@H]2CCC(=O)NCCCC[C@H](NC(=O)[C@H](Cc3c[nH]c4ccccc34)NC(=O)[C@@H]3C[C@@H](O)CN3C(=O)[C@H](CCC(N)=O)NC(=O)[C@H](Cc3c[nH]cn3)NC(=O)[C@@H]3CCCN3C(=O)[C@H](CC(N)=O)NC(=O)[C@@H](C)NC(=O)[C@H](Cc3ccc(O)cc3)NC(=O)CSC[C@@H](C(=O)NCC(N)=O)NC2=O)C(=O)N[C@@H](Cc2c[nH]c3ccccc23)C(=O)N1C` [Example 5007] ({CH2CO}-Y[dA]NPHQ[Hyp]WKW[NMeNle][NMeNle]ECG-NH2; lactam 9-13; thioether N-14) the IC50 was 14 nM.

Same assay, conditions: PD-1-Ig (20 nM)/PD-L1-His (10 nM); range classes
Compound `CCCC[C@H]1C(=O)N(C)[C@@H](CCCC)C(=O)N[C@H]2CCCCNC(=O)CC[C@H](NC(=O)[C@H](Cc3c[nH]c4ccccc34)NC(=O)CN(C)C(=O)[C@H](CC(C)C)NC(=O)[C@H](Cc3c[nH]cn3)NC(=O)[C@@H]3CCCN3C(=O)[C@H](CC(N)=O)NC(=O)[C@H](C)N(C)C(=O)[C@H](Cc3ccccc3)NC(=O)CSC[C@@H](C(=O)NCC(N)=O)NC2=O)C(=O)N[C@@H](Cc2c[nH]c3ccccc23)C(=O)N1C` [Example 5002] ({CH2CO}-F[NMeA]NPHL[Sar]WEW[NMeNle][NMeNle]KCG-NH2; lactam 9-13; thioether N-14) has an IC50 of 10 to 99 nM. `CCCC[C@H]1C(=O)N(C)[C@@H](CCCC)C(=O)N[C@H]2CCC(=O)NCCC[C@H](NC(=O)[C@H](Cc3c[nH]c4ccccc34)NC(=O)CN(C)C(=O)[C@H](CC(C)C)NC(=O)[C@H](Cc3c[nH]cn3)NC(=O)[C@@H]3CCCN3C(=O)[C@H](CC(N)=O)NC(=O)[C@H](C)N(C)C(=O)[C@H](Cc3ccccc3)NC(=O)CSC[C@@H](C(=O)NCC(N)=O)NC2=O)C(=O)N[C@@H](Cc2c[nH]c3ccccc23)C(=O)N1C` [Example 5003] ({CH2CO}-F[NMeA]NPHL[Sar]W[Orn]W[NMeNle][NMeNle]ECG-NH2; lactam 9-13; thioether N-14) gave an IC50 of 10 to 99 nM. Work on `CCCC[C@H]1C(=O)N(C)[C@@H](CCCC)C(=O)N[C@H]2CCC(=O)NCCCC[C@H](NC(=O)[C@H](Cc3c[nH]c4ccccc34)NC(=O)[C@@H]3CCCN3C(=O)[C@H](CC(C)C)NC(=O)[C@H](Cc3c[nH]cn3)NC(=O)[C@@H]3CCCN3C(=O)[C@H](CC(N)=O)NC(=O)[C@H](C)N(C)C(=O)[C@H](Cc3ccc(O)cc3)NC(=O)CSC[C@@H](C(=O)NCC(N)=O)NC2=O)C(=O)N[C@@H](Cc2csc3ccccc23)C(=O)N1C` [Example 5004] ({CH2CO}-Y[NMeA]NPHLPWK[Bta][NMeNle][NMeNle]ECG-NH2; lactam 9-13; thioether N-14) yielded an IC50 of 3 to 9.9 nM. Work on `CCCC[C@H]1C(=O)N(C)[C@@H](CCCC)C(=O)N[C@H]2CCC(=O)NCCCC[C@H](NC(=O)[C@H](Cc3c[nH]c4ccccc34)NC(=O)[C@@H]3C[C@@H](O)CN3C(=O)[C@@H]3CCCCNC(=O)C[C@H](NC(=O)[C@H](C)N(C)C(=O)[C@H](Cc4ccc(O)cc4)NC(=O)CSC[C@@H](C(=O)NCC(N)=O)NC2=O)C(=O)N2CCC[C@H]2C(=O)N[C@@H](Cc2c[nH]cn2)C(=O)N3)C(=O)N[C@@H](Cc2c[nH]c3ccccc23)C(=O)N1C` [Example 5005] ({CH2CO}-Y[NMeA]DPHK[Hyp]WKW[NMeNle][NMeNle]ECG-NH2; lactam 3-6, 9-13; thioether N-14) yielded an IC50 of 10 to 99 nM. `CCCC[C@H]1C(=O)N(C)[C@@H](CCCC)C(=O)N[C@@H](CCC(N)=O)C(=O)N[C@H](C(=O)NCC(N)=O)CSCC(=O)N[C@@H](Cc2ccc(O)cc2)C(=O)N[C@H](C)C(=O)N[C@H]2CC(=O)NCCCC[C@H](NC(=O)[C@H](Cc3c[nH]cn3)NC(=O)[C@@H]3CCCN3C2=O)C(=O)N2C[C@H](O)C[C@H]2C(=O)N[C@@H](Cc2c[nH]c3ccccc23)C(=O)N[C@@H](CO)C(=O)N[C@@H](Cc2c[nH]c3ccccc23)C(=O)N1C` [Example 5006] ({CH2CO}-Y[dA]DPHK[Hyp]WSW[NMeNle][NMeNle]QCG-NH2; lactam 3-6; thioether N-14) showed an IC50 of 10 to 99 nM. In the case of `CCCC[C@H]1C(=O)N(C)[C@@H](CCCC)C(=O)N[C@H]2CCC(=O)NCCCC[C@H](NC(=O)[C@H](Cc3c[nH]c4ccccc34)NC(=O)[C@@H]3C[C@@H](O)CN3C(=O)[C@H](CC(C)C)NC(=O)[C@H](Cc3c[nH]cn3)NC(=O)[C@@H]3CCCN3C(=O)[C@H](CC(N)=O)NC(=O)[C@@H](C)NC(=O)[C@H](Cc3ccc(O)cc3)NC(=O)CSC[C@@H](C(=O)NCC(N)=O)NC2=O)C(=O)N[C@@H](Cc2c[nH]c3ccccc23)C(=O)N1C` [Example 5008] ({CH2CO}-Y[dA]NPHL[Hyp]WKW[NMeNle][NMeNle]ECG-NH2; lactam 9-13; thioether N-14), the IC50 is reported as 3 to 9.9 nM. Work on `CCCC[C@H]1C(=O)N(C)[C@@H](CCCC)C(=O)N[C@H]2CCCC[C@H](NC(=O)[C@H](Cc3c[nH]c4ccccc34)NC(=O)[C@@H]3CCCN3C(=O)[C@H](CC(C)C)NC(=O)[C@H](Cc3cnc[nH]3)NC(=O)[C@@H]3CCCN3C(=O)[C@H](CC(N)=O)NC(=O)[C@H](C)N(C)C(=O)[C@H](Cc3ccc(O)cc3)NC(=O)CSC[C@@H](C(=O)NCC(N)=O)NC2=O)C(=O)N[C@@H](Cc2c[nH]c3ccccc23)C(=O)N1C` [Example 7156] yielded an IC50 of 10 to 99 nM. For `CCCC[C@H]1C(=O)N(C)[C@@H](CCCC)C(=O)N[C@@H](CC(C)C)C(=O)N[C@H](C(=O)NCC(N)=O)CSCC(=O)N[C@@H](Cc2ccc(O)cc2)C(=O)N(C)[C@@H](C)C(=O)N[C@H]2CCC(=O)NC[C@H](NC(=O)[C@@H]3CCCN3C2=O)C(=O)N[C@@H](CC(C)C)C(=O)N2CCC[C@H]2C(=O)N[C@@H](Cc2c[nH]c3ccccc23)C(=O)N[C@@H](CO)C(=O)N[C@@H](Cc2c[nH]c3ccccc23)C(=O)N1C` [Example 10500], the IC50 was 100 to 1000 nM. `CCCC[C@H]1C(=O)N(C)[C@@H](CCCC)C(=O)N[C@@H](CC(C)C)C(=O)N[C@H](C(=O)NCC(N)=O)CSCC(=O)N[C@@H](Cc2ccc(O)cc2)C(=O)N(C)[C@@H](C)C(=O)N[C@H]2CCC(=O)NCCCC[C@H](NC(=O)[C@@H]3CCCN3C2=O)C(=O)N[C@@H](CC(C)C)C(=O)N2CCC[C@H]2C(=O)N[C@@H](Cc2c[nH]c3ccccc23)C(=O)N[C@@H](CO)C(=O)N[C@@H](Cc2c[nH]c3ccccc23)C(=O)N1C` [Example 10501] showed an IC50 of 100 to 1000 nM. In the case of `CCCC[C@H]1C(=O)N(C)[C@@H](CCCC)C(=O)N[C@@H](CC(C)C)C(=O)N[C@H](C(=O)NCC(N)=O)CSCC(=O)N[C@@H](Cc2ccc(O)cc2)C(=O)N(C)[C@@H](C)C(=O)N[C@H]2CCC(=O)NCC[C@H](NC(=O)[C@@H]3CCCN3C2=O)C(=O)N[C@@H](CC(C)C)C(=O)N2CCC[C@H]2C(=O)N[C@@H](Cc2c[nH]c3ccccc23)C(=O)N[C@@H](CO)C(=O)N[C@@H](Cc2c[nH]c3ccccc23)C(=O)N1C` [Example 10503], the IC50 is reported as 100 to 1000 nM.
